# Source: ChEMBL document CHEMBL1143729, “Biotransformation of polymethoxylated flavonoids: access to their 4'-O-demethylated metabolites” (J Nat Prod, 2007)
# System: Aspergillus niger
# Test: Inhibition of CYP450-mediated tangeretin demethylation in Aspergillus niger ATCC 9142 assessed as relative activity at 0.5 mM
row,Structure (SMILES),relative activity [%]
1,CC(C)(C(=O)c1cccnc1)c1cccnc1,40
2,CCCC(C(=O)OCCN(CC)CC)(c1ccccc1)c1ccccc1,0
3,Clc1ccc(COC(Cn2ccnc2)c2ccc(Cl)cc2Cl)c(Cl)c1 (centres undefined),10
4,CC1=CC(=O)c2ccccc2C1=O,0
